Assay [1] has as its system Pseudomonas aeruginosa. Put plainly: Antibacterial activity against Pseudomonas aeruginosa by disk diffusion method. Format: functional. A general note: Agar diffusion results depend on both activity and mobility in agar.
The subject of assay [2] is Proteus mirabilis. Description: Antibacterial activity against Proteus mirabilis by disk diffusion method.
The test system of assay [3] is Shigella flexneri. Description: Antibacterial activity against Shigella flexneri by disk diffusion method. Format: functional.
Assay [4] relates to Bacillus subtilis. Description: Antibacterial activity against Bacillus subtilis by disk diffusion method.
For assay [5], the system named is Enterobacter cloacae. Put plainly: Antibacterial activity against Enterobacter cloacae by disk diffusion method. Format: functional.
For assay [6], the system named is Staphylococcus aureus. Put plainly: Antibacterial activity against Staphylococcus aureus by disk diffusion method. It is filed as functional.

Values after ≈ are worked out from the molar mass of the structure shown. Active and inactive are the calls of the source. The calls are words filed in the database; no cut-off is given here.

On to `O=C(O)c1cn(C2CC2)c2cc(N3CCNCC3)c(F)cc2c1=O` [CIPROFLOXACIN], for which the MIC in assay [1], in assay [2], in assay [3] and in assay [4] was 20 µg/mL (≈ 60.4 µM) throughout.

Consider `O=C(O)c1cc(=O)c2ccccc2[nH]1` [TRANSTORINE], for which the figures for the MIC in assay [1], in assay [5] and in assay [6] were 500 µg/mL (≈ 2640 µM), 450 µg/mL (≈ 2380 µM) and 380 µg/mL (≈ 2010 µM), respectively. Moreover, in assay [3], the result was inactive.

The values above are taken from ChEMBL document CHEMBL1141728, “Transtorine, a new quinoline alkaloid from Ephedra transitoria” (1998).
